Laboratory results as given in patent US7750148B2, “Intermediate compound for the production of β-lactamase-resistant cephalosporin ester compounds and salts thereof” (Zhejiang Yongning Pharmaceutical Factory, priority 2003, dated 2010).
Read-outs that look alike come from different tables or passages of the source.

Experiments:
[1] = system: type II, III, IV, V β-lactamase; conditions: at a concentration of 2 μg/ml; cited from earlier work
[2] = system: Bacillus pneumoniae 46101; experiment: In vitro antibacterial activity (MIC, agar double dilution); type: cell-based; conditions: read-out: MIC of the drug to bacteria
Excerpt: (§1) tested samples YR-1, YR-2 were the ones prepared in example 1 and example 5 respectively, control samples were cefetamet sodium (CTM), cefuroxime sodium (CRX), cefetamet sodium+sulbactam sodium (CTM+SBT) (molar ratio 1:1), cefuroxime+sulbactam sodium (CRX+SBT) (molar ratio 1:1). All control samples (have been sold on the market) were supplied by Zhejiang Yongning pharmaceutical factory.
(§2) Staphylococcus aureus 26003, Diplococcus lanceolatus 31002, E. coli 44102, Shigella sonnet 51081, Shigella bogdii 51313, Shigella flexneri 51573, Proteus mirabilis 49005, Bacillus proteus 49085, Proteus morganii 49086, Pseudomonas aeruginosa 10124, Bacillus pneumoniae 46101, Salmonella enteritidis 50041, Salmonella typhi 50097, Citrobacter 48017, Candida ciferii 41002 were supplied by Shanghai Hygienic and Antiepidemic Station.
(§3) Mueller-Hinton Agar (M.H) culture medium, batch number 20040528 (Shanghai Reagent Supply Research Center, China Diarrhea Disease Control).
(§4) Adopted agar double dilution, inoculated using multipoint inoculator, inoculated 10^5CFU/ML each point, cultured for 24 hours at 37° C., observed and recorded the results, set the least concentration of the antibacterial drug that can inhibit bacteria growth as the minimum inhibitory concentration (MIC).

Bacillus proteus 49085 = experiment: as above; type: cell-based; conditions: read-out: MIC of the drug to bacteria
Excerpt: as §1, §2, §3, §4

Candida ciferii 41002 = experiment: as above; type: cell-based; conditions: read-out: MIC of the drug to bacteria
Excerpt: as §1, §2, §3, §4

Citrobacter 48017 = experiment: as above; type: cell-based; conditions: Citrobacter, 48017, 24 h, read-out: MIC of the drug to bacteria
Excerpt: as §1, §2, §3, §4

[3] = system: Diplococcus lanceolatus 31002; experiment: as above; type: cell-based; conditions: read-out: MIC of the drug to bacteria
Excerpt: as §1, §2, §3, §4

E. coli 44102 = experiment: as above; type: cell-based; conditions: read-out: MIC of the drug to bacteria
Excerpt: as §1, §2, §3, §4

Proteus mirabilis 49005 = experiment: as above; type: cell-based; conditions: Proteus mirabilis, 49005, 24 h, read-out: MIC of the drug to bacteria
Excerpt: as §1, §2, §3, §4

[4] = system: Pseudomonas aeruginosa 10124; experiment: as above; type: cell-based; conditions: read-out: MIC of the drug to bacteria
Excerpt: as §1, §2, §3, §4

[5] = system: Salmonella enteritidis 50041; experiment: as above; type: cell-based; conditions: Salmonella enterica, read-out: MIC of the drug to bacteria
Excerpt: as §1, §2, §3, §4

Salmonella typhi 50097 = experiment: as above; type: cell-based; conditions: Salmonella enterica, 10^5CFU/ML each point, 24 hours at 37° C., read-out: MIC of the drug to bacteria
Excerpt: as §1, §2, §3, §4

Shigella bogdii 51313 = experiment: as above; type: cell-based; conditions: Shigella, 51313, 24 h, read-out: MIC of the drug to bacteria
Excerpt: as §1, §2, §3, §4

Shigella flexneri 51573 = experiment: as above; type: cell-based; conditions: Shigella flexneri, 51573, 24 h, read-out: MIC of the drug to bacteria
Excerpt: as §1, §2, §3, §4

Shigella sonnet 51081 = experiment: as above; type: cell-based; conditions: Shigella, 51081, 24 h, read-out: MIC of the drug to bacteria
Excerpt: as §1, §2, §3, §4

[6] = system: Staphylococcus aureus 26003; experiment: as above; type: cell-based; conditions: Staphylococcus aureus, 26003, 24 h, read-out: MIC of the drug to bacteria
Excerpt: as §1, §2, §3, §4

Proteus morganii 49086 = experiment: as above; type: cell-based
Excerpt: as §1, §2, §3, §4

Bacillus aerogenes 45102 = experiment: as above; type: cell-based; conditions: Bacillus, 45102, 24 h, read-out: MIC of the drug to bacteria
Excerpt: as §1
(§5) Staphylococcus epidermidis 26069 and Bacillus aerogenes 45102 were supplied by Beijing Drug & Biology Product Appraisal Bureau.
as §3, §4

[7] = system: Staphylococcus epidermidis 26069; experiment: as above; type: cell-based; conditions: read-out: MIC of the drug to bacteria
Excerpt: as §1, §5, §3, §4

[8] = system: Diplococcus lanceolatus 0031; experiment: as above; type: cell-based; conditions: read-out: MIC of the drug to bacteria
Excerpt: as §1
Diplococcus lanceolatus 0031 was supplied by Shanghai First People's Hospital.
as §3, §4

[9] = system: Bacillus proteus 49085, Proteus morganii 49086; experiment: Ex vivo antibacterial activity experiment after mouse is administered, conclusions (strains not separated); type: in vivo; conditions: mice, intravenous injection 500 mg/kg
Excerpt: the sources of tested samples (YR-1, YR-2) and control samples (CTM, CRX, CTM+SBT 1:1 and CRX+SBT 1:1) are the same as above. Bacillus proteus 49085, Proteus morganii 49086, inoculated 10^5CFU/ML each dish. Mueller-Hinton Agar (M.H) culture medium, batch number 000707 (Shanghai Reagent Supply Research Center, China Diarrhea Disease Control). Strain: Kunming mice; source: Animal Facility of Shanghai Institute of Pharmaceutical Industry; certificate number: Hudonghezhengzi No. 107; animal numbers: 120; Sex: same number of male and female mice; Body weight: 18-21 g; fast time: 16 hours. Group 1: CTM, CRX, CTM+SBT 1:1, CRX+SBT 1:1 were given at a dosage of 500 mg/kg intravenously, collecting blood at 10 minutes, 30 minutes, 1 hour, 2 hours, 4 hours, 8 hours after administration. Group 2: […] Kunming mice were randomly divided into several groups according to body weight of empty stomach and sex. Collecting blood of three mice at different time point, anticoagulated with heparin, centrifugated and separated plasma, quantitative spotting, semi-quantitated antibacterial activity according to the size of bacterial inhibition ring.

Q: For `CC1(C)[C@H](C(=O)O)N2C(=O)C[C@H]2S1(=O)=O` [Sulbactam], which “inhibition to β-lactamase” value [1] is on record?
A: The value was “extremely strong inhibition”.

Q: For `CO/N=C(\C(=O)N[C@@H]1C(=O)N2C(C(=O)O)=C(COC(N)=O)CS[C@H]12)c1ccco1` [CRX, cefuroxime sodium, reference compound], which MIC ([2]; Klebsiella pneumoniae, Bacillus pneumoniae 46101, 10^5CFU/ML each point, 24 hours at 37° C.) is on record?
A: The MIC was 25 µg/mL.

Q: What about the MIC (Bacillus proteus 49085; Bacillus proteus 49085, 10^5CFU/ML each point, 24 hours at 37° C.) of the same compound?
A: The MIC was 0.78 µg/mL.

Q: What about the MIC (Candida ciferii 41002; Candida ciferii 41002, 10^5CFU/ML each point, 24 hours at 37° C.) of the same compound?
A: The MIC was 25 µg/mL.

Q: What about the MIC (Citrobacter 48017) of the same compound?
A: Its MIC is 1.56 µg/mL.

Q: And the MIC ([3]; Diplococcus lanceolatus 31002, 10^5CFU/ML each point, 24 hours at 37° C.)?
A: Its MIC is 25 µg/mL.

Q: And the MIC (E. coli 44102; Escherichia coli, E. coli 44102, 10^5CFU/ML each point, 24 hours at 37° C.)?
A: The MIC was 6.25 µg/mL.

Q: And the MIC (Proteus mirabilis 49005)?
A: The MIC was 1.56 µg/mL.

Q: And the MIC ([4]; Pseudomonas aeruginosa 10124, 10^5CFU/ML each point, 24 hours at 37° C.)?
A: The MIC was 100 µg/mL.

Q: What about the MIC ([5]; Salmonella enteritidis 50041, 10^5CFU/ML each point, 24 hours at 37° C.) of the same compound?
A: Its MIC is 6.25 µg/mL.

Q: What about the MIC (Salmonella typhi 50097) of the same compound?
A: Its MIC is 3.13 µg/mL.

Q: And the MIC (Shigella bogdii 51313)?
A: The MIC was 1.56 µg/mL.

Q: And the MIC (Shigella flexneri 51573)?
A: Its MIC is 1.56 µg/mL.

Q: And the MIC (Shigella sonnet 51081)?
A: The MIC was 0.78 µg/mL.

Q: And the MIC [6]?
A: The MIC was 1.56 µg/mL.

Q: And the MIC (Proteus morganii 49086; Morganella morganii, Proteus morganii 49086, 10^5CFU/ML each point, 24 hours at 37° C., read-out: MIC of the drug to bacteria)?
A: The MIC was 100 µg/mL.

Q: What about the MIC (Bacillus aerogenes 45102) of the same compound?
A: The MIC was 3.13 µg/mL.

Q: What about the MIC ([7]; Staphylococcus epidermidis 26069, 10^5CFU/ML each point, 24 hours at 37° C.) of the same compound?
A: The MIC was 0.39 µg/mL.

Q: And the MIC ([8]; Diplococcus lanceolatus 0031, 10^5CFU/ML each point, 24 hours at 37° C.)?
A: Its MIC is 0.78 µg/mL.

Q: What about the “antibacterial activities in blood 8 hours after administration” value [9] of the same compound?
A: Its value is “can not be detected”.

Q: With `CO/N=C(\C(=O)N[C@@H]1C(=O)N2C(C(=O)O)=C(C)CS[C@H]12)c1csc(N)n1` [CTM, cefetamet sodium, reference compound] as the compound, how does the MIC ([2]; Klebsiella pneumoniae, 46101, 24 h) read?
A: Its MIC is 0.78 µg/mL.

Q: What about the MIC (Bacillus proteus 49085; Bacillus, 49085, 24 h) of the same compound?
A: The MIC was 0.195 µg/mL.

Q: What about the MIC (Candida ciferii 41002; Candida, 41002, 24 h) of the same compound?
A: Its MIC is 0.78 µg/mL.

Q: And the MIC (Citrobacter 48017)?
A: The MIC was 1.56 µg/mL.

Q: What about the MIC ([3]; 24 h) of the same compound?
A: The MIC was over 100 µg/mL.

Q: And the MIC (E. coli 44102; Escherichia coli, 44102, 24 h)?
A: Its MIC is 0.78 µg/mL.

Q: What about the MIC (Proteus mirabilis 49005) of the same compound?
A: The MIC was 0.195 µg/mL.

Q: What about the MIC ([4]; Pseudomonas aeruginosa, 10124, 24 h) of the same compound?
A: Its MIC is 100 µg/mL.

Q: What about the MIC ([5]; ENTERITIDIS, 24 h) of the same compound?
A: The MIC was 0.78 µg/mL.

Q: What about the MIC (Salmonella typhi 50097) of the same compound?
A: The MIC was 0.78 µg/mL.

Q: And the MIC (Shigella bogdii 51313)?
A: The MIC was 0.39 µg/mL.

Q: And the MIC (Shigella flexneri 51573)?
A: The MIC was 0.78 µg/mL.

Q: What about the MIC (Shigella sonnet 51081) of the same compound?
A: The MIC was 0.39 µg/mL.

Q: What about the MIC [6] of the same compound?
A: The MIC was 100 µg/mL.

Q: And the MIC (Proteus morganii 49086; Morganella morganii, 49086, 24 h, read-out: MIC of the drug to bacteria)?
A: Its MIC is over 100 µg/mL.

Q: And the MIC (Proteus morganii 49086; Morganella morganii, 49086, read-out: MIC (as restated in the conclusions))?
A: Its MIC is over 100000 µg/mL.

Q: What about the MIC (Bacillus aerogenes 45102) of the same compound?
A: The MIC was 0.195 µg/mL.

Q: What about the MIC ([7]; Staphylococcus epidermidis, 26069, 24 h) of the same compound?
A: Its MIC is 12.5 µg/mL.

Q: What about the MIC ([8]; 24 h) of the same compound?
A: Its MIC is 25 µg/mL.

Q: And the “antibacterial activities in blood 8 hours after administration” value [9]?
A: Its value is “can not be detected”.
